Reference: patent publication US20240269139A1, “COMPOUNDS FOR TARGETED PROTEIN DEGRADATION OF KINASES” (DANA-FARBER CANCER INSTITUTE, INC., priority 2020, published 2024)
Like-named read-outs stand apart in the source and are kept apart here.

Legend:
Assay type in all cases: cell-based
[1] = target: protein kinases (human kinome) (Homo sapiens, UniProt Q8NI60)
[2] = target: protein kinases (human kinome) (Homo sapiens, UniProt P53667); conditions: LIMK1 (P53667-1)
[3] = target: T1, protein kinases (human kinome) (Homo sapiens, UniProt P33981); conditions: for logFC TTK: Accession P33981
T1 sequence (P33981 1-857): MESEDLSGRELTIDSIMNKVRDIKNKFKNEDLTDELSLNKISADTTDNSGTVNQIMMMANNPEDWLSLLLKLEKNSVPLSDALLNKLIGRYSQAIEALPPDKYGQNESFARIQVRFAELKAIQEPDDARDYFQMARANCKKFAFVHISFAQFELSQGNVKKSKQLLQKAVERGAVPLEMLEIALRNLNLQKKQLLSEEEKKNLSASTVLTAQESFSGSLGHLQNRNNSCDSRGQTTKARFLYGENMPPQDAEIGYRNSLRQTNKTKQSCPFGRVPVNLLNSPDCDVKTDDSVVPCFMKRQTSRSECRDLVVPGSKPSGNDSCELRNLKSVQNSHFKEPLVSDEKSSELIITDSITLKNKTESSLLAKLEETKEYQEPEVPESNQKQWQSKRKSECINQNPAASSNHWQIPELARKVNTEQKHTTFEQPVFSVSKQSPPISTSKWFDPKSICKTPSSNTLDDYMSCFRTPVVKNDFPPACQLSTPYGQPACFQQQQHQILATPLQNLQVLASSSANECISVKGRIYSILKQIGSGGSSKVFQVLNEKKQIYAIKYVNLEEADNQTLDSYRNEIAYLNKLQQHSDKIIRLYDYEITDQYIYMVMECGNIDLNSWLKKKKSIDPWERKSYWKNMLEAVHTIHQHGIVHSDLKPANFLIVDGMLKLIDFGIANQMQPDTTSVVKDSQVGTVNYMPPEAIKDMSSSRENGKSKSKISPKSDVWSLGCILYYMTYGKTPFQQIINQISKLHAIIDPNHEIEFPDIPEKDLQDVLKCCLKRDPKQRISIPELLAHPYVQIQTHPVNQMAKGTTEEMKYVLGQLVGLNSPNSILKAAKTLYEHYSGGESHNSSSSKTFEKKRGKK

[4] = direction down, experiment wp168
[5] = direction down, experiment wp137
[6] = direction down, experiment wp147, 1 uM
[7] = direction down, experiment wp147, 2 uM
[8] = direction down, experiment wp147, 4 uM

Chain of protein kinases (human kinome) (Homo sapiens, UniProt P53667) (P53667 whole entry): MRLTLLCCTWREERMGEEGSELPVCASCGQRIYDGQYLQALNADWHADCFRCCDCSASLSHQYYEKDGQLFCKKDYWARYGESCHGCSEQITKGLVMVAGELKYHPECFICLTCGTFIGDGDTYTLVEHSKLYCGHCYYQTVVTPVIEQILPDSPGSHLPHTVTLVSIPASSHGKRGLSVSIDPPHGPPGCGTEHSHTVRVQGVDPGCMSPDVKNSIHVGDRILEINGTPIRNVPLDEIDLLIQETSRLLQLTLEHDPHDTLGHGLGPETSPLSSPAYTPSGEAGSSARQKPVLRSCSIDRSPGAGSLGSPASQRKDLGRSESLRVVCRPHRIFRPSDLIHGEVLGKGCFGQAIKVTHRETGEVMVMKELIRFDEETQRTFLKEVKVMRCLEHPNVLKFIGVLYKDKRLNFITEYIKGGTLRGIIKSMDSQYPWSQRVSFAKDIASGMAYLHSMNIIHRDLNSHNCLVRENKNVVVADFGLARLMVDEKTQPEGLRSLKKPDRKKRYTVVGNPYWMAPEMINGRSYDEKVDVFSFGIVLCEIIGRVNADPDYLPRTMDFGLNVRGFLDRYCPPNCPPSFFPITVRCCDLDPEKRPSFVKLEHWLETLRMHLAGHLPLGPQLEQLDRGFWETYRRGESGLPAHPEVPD
Chain of protein kinases (human kinome) (Homo sapiens, UniProt Q8NI60) (Q8NI60 163-647): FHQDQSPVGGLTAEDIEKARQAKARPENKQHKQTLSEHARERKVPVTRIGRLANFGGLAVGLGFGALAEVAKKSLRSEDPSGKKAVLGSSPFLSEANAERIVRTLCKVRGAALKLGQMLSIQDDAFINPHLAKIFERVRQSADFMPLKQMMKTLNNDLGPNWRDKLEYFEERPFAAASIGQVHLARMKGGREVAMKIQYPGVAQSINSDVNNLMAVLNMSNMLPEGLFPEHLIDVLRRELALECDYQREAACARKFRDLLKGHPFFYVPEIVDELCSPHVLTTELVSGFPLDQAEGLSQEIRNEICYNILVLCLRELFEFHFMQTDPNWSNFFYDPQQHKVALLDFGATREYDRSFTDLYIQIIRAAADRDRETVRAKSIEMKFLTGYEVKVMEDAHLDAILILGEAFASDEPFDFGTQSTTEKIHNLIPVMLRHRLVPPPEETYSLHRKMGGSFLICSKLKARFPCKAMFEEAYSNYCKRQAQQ

SMILES: CC(=O)c1c(C)c2cnc(Nc3ccc(N4CCN(CCOCCOCCOCCNC(=O)COc5cccc6c5C(=O)N(C5CCC(=O)NC5=O)C6=O)CC4)cn3)nc2n(C2CCCC2)c1=O (centres unmarked) [BSJ.03.123]
- logFC COQ8A (Q8N160-1) ([1]; experiment wp084): −0.4611
- logFC COQ8A (Q8NI60-1) ([1]; experiment wp084): −0.4611

SMILES: CN(C)C(=O)c1cc2cnc(Nc3ccc(N4CCN(CCCCNC(=O)COc5cccc6c5C(=O)N(C5CCC(=O)NC5=O)C6=O)CC4)cn3)nc2n1C1CCCC1 (centres unmarked) [BSJ.04.132]
- logFC COQ8A (Q8N160-1) ([1]; experiment wp084): −0.5939
- logFC COQ8A (Q8NI60-1) ([1]; experiment wp084): −0.6939

SMILES: Cc1ccc(NC(=O)c2cccc(C(F)(F)F)c2)cc1N1Cc2cnc(Nc3ccc(N4CCN(CCCOc5cccc6c5C(=O)N(C5CCC(=O)NC5=O)C6=O)CC4)nc3)nc2N(C)C1=O (centres unmarked) [DB0662]
- logFC LIMK1 [2, 4]: −1.911
- logFC LIMK1 ([2]; experiment wp168, down): −1.911

SMILES: Cc1ccc(NC(=O)c2cccc(C(F)(F)F)c2)cc1N1Cc2cnc(Nc3ccc(N4CCN(CCCCC(=O)N[C@H](C(=O)N5C[C@H](O)C[C@H]5C(=O)N[C@@H](C)c5ccc(-c6scnc6C)cc5)C(C)(C)C)CC4)nc3)nc2N(C)C1=O [DB1113]
- logFC LIMK1 [2, 4]: −1.144
- logFC LIMK1 ([2]; experiment wp168, down): −1.144

SMILES: CC(C)(C)c1nc(-c2cccc(NS(=O)(=O)c3c(F)cccc3F)c2F)c(-c2ccnc(NCCOCCNC(=O)CCOCCOCCNc3cccc4c3C(=O)N(C3CCC(=O)NC3=O)C4=O)n2)s1 (centres unmarked) [DD.03.106]
- logFC LIMK1 ([2]; direction down, experiment wp047): −1.637
- logFC LIMK1 [2, 5]: −1.981
- logFC LIMK1 [2, 6]: −2.959
- logFC LIMK1 [2, 7]: −2.2
- logFC LIMK1 [2, 8]: −0.637
- logFC LIMK1 ([2]; experiment wp047, down): −1.637
- logFC LIMK1 ([2]; experiment wp137, down): −1.981
- logFC LIMK1 ([2]; experiment wp147, 1 uM, down): −2.959
- logFC LIMK1 ([2]; experiment wp147, 2 uM, down): −2.2
- logFC LIMK1 ([2]; experiment wp147, 4 uM, down): −0.637
- logFC COQ8A (Q8N160-1) ([1]; experiment wp147, 1 uM): −0.3548
- logFC COQ8A (Q8NI60-1) ([1]; experiment wp147, 1 uM): −0.3548
- logFC COQ8A (Q8N160-1) ([1]; experiment wp147, 4 uM): −0.8159
- logFC COQ8A (Q8NI60-1) ([1]; experiment wp147, 4 uM): −0.8159

SMILES: CC(C)(C)c1nc(-c2cccc(NS(=O)(=O)c3c(F)cccc3F)c2F)c(-c2ccnc(NCCOCCNC(=O)CCOCCOCCNc3cccc4c3CN(C3CCC(=O)NC3=O)C4=O)n2)s1 (centres unmarked) [DD.03.107]
- logFC LIMK1 ([2]; direction down, experiment wp056): −0.9594
- logFC LIMK1 [2, 5]: −1.222
- logFC LIMK1 [2, 6]: −0.9691
- logFC LIMK1 [2, 7]: −1.375
- logFC LIMK1 [2, 8]: −1.536
- logFC LIMK1 ([2]; experiment wp056, down): −0.9594
- logFC LIMK1 ([2]; experiment wp137, down): −1.222
- logFC LIMK1 ([2]; experiment wp147, 1 uM, down): −0.9691
- logFC LIMK1 ([2]; experiment wp147, 2 uM, down): −1.375
- logFC LIMK1 ([2]; experiment wp147, 4 uM, down): −1.536
- logFC COQ8A (Q8N160-1) ([1]; experiment wp147, 1 uM): −0.6678
- logFC COQ8A (Q8NI60-1) ([1]; experiment wp147, 1 uM): −0.6678
- logFC COQ8A (Q8N160-1) ([1]; experiment wp147, 2 uM): −0.6288
- logFC COQ8A (Q8NI60-1) ([1]; experiment wp147, 2 uM): −0.6288
- logFC COQ8A (Q8N160-1) ([1]; experiment wp147, 4 uM): −1.121
- logFC COQ8A (Q8NI60-1) ([1]; experiment wp147, 4 uM): −1.121

SMILES: CCc1cnn2c(N(Cc3ccc(N)nc3)C(=O)CCOCCOCCOCCNC(=O)CNc3cccc4c3C(=O)N(C3CCC(=O)NC3=O)C4=O)cc(N3CCCC[C@H]3CCO)nc12 (some centres unmarked) [MFH.5.115.2]
- logFC TTK ([3]; experiment wp076): −0.3249
- logFC TTK (P33981) ([3]; experiment wp076): −0.3249

SMILES: O=C1CCC(N2C(=O)c3cccc(NCCCCCCCCN4CCC(NC(=O)c5[nH]ncc5NC(=O)c5c(Cl)cccc5Cl)CC4)c3C2=O)C(=O)N1 (centres unmarked) [MFH.5.126.1]
- logFC TTK ([3]; experiment wp076): −0.4412
- logFC TTK (P33981) ([3]; experiment wp076): −0.4412

SMILES: Nc1ncnc2c1c(-c1ccc(Oc3ccccc3)cc1)nn2[C@H]1CC[C@H](N2CCN(CCOCCNC(=O)CNc3cccc4c3C(=O)N(C3CCC(=O)NC3=O)C4=O)CC2)CC1 (some centres unmarked) [SB1.G.181]
- logFC LIMK1 ([2]; direction down, experiment wp071): −0.686
- logFC LIMK1 ([2]; experiment wp071, down): −0.686

SMILES: Cc1ccc(C(=O)Nc2ccc(CN3CCN(CCCOCCOCCOCCNC(=O)COc4cccc5c4C(=O)N(C4CCC(=O)NC4=O)C5=O)CC3)c(C(F)(F)F)c2)cc1C#Cc1cnc2cccnn12 (centres unmarked) [SB1.G.187]
- logFC COQ8A (Q8N160-1) ([1]; experiment wp056): −0.3885
- logFC COQ8A (Q8NI60-1) ([1]; experiment wp056): −0.3885

SMILES: CC(C)S(=O)(=O)c1ccccc1Nc1nc(Nc2ccc(N3CCN(CCOCCOCCNC(=O)CNc4cccc5c4C(=O)N(C4CCC(=O)NC4=O)C5=O)CC3)cc2)ncc1Cl (centres unmarked) [TL12.186]
- logFC LIMK1 ([2]; direction down, experiment wp131): −1.055
- logFC LIMK1 [2, 5]: −0.8734
- logFC LIMK1 ([2]; experiment wp131, down): −1.055
- logFC LIMK1 ([2]; experiment wp137, down): −0.8734
- logFC COQ8A (Q8N160-1) ([1]; experiment wp137): −0.4564
- logFC COQ8A (Q8NI60-1) ([1]; experiment wp137): −0.4564

SMILES: CC(C)S(=O)(=O)c1ccccc1Nc1nc(Nc2ccc(N3CCN(CCOCCOCCC(=O)NCCNc4cccc5c4CN(C4CCC(=O)NC4=O)C5=O)CC3)cc2)ncc1Cl (centres unmarked) [TL13.97]
- logFC LIMK1 [2, 5]: −1.173
- logFC LIMK1 ([2]; experiment wp137, down): −1.173

SMILES: NC(=O)c1c(F)cccc1Nc1nc(Nc2ccc(S(=O)(=O)NCCOCCOCCOCCOCCNc3cccc4c3C(=O)N(C3CCC(=O)NC3=O)C4=O)cc2)ncc1Br (centres unmarked) [TMX.02.138]
- logFC TTK ([3]; experiment wp146): −0.6178
- logFC TTK (P33981) ([3]; experiment wp146): −0.6178

SMILES: Cc1cc(Nc2ncc(Br)c(Nc3cccc(F)c3C(N)=O)n2)ccc1S(=O)(=O)NCCOCCOCCOCCOCCNc1cccc2c1C(=O)N(C1CCC(=O)NC1=O)C2=O (centres unmarked) [TMX.02.174]
- logFC TTK ([3]; experiment wp146): −0.7225
- logFC TTK (P33981) ([3]; experiment wp146): −0.7225

SMILES: C=CCn1c(=O)c2cnc(Nc3ccc(N4CCN(CCCNc5cccc6c5C(=O)N(C5CCC(=O)NC5=O)C6=O)CC4)cc3)nc2n1-c1cccc(C(C)(C)O)n1 (centres unmarked) [ZNL.02.096]
- logFC COQ8A (Q8N160-1) ([1]; experiment wp056): −0.4317
- logFC COQ8A (Q8NI60-1) ([1]; experiment wp056): −0.4317
- logFC COQ8A (Q8N160-1) ([1]; experiment wp118): −0.423
- logFC COQ8A (Q8NI60-1) ([1]; experiment wp118): −0.423
